In the NIST ThermoML archive (doi:10.1021/je900468u):
Where “and” joins values, the source holds several entries; their conditions need not be identical. Equal entries are not always repeated.

Key:
[1] = 101 kPa, Liquid; for speed of sound: Pulse-echo method
[2] = refractive index (Na D-line) (dimensionless); settings: 101.33 kPa, Liquid, Standard Abbe refractometry
[3] = refractive index (Na D-line) (dimensionless); xn = mol fraction of the nth substance listed; settings: 101 kPa, Liquid, Standard Abbe refractometry
[4] = xn = mol fraction of the nth substance listed; settings: 101 kPa, Liquid; for speed of sound: Pulse-echo method

c1ccccc1 [benzene]
Settings | mass density, [1] | refractive index, [2] | speed of sound, [1] [m/s]
283.15 K | 889.5 kg/m3 | 1.50765 | 1371
298.15 K | 873.9 kg/m3 and 873.6 kg/m3 | 1.49774 | 1299

C1CCCCC1 [cyclohexane]
Settings | mass density, [1] [kg/m3] | refractive index, [2] | speed of sound, [1] [m/s]
283.15 K | 787.8 | 1.43193 | 1329
298.15 K | 773.9 | 1.4236 | 1255

C1CCCCCCC1 [cyclooctane]
298.15 K
Settings | mass density [kg/m3] | refractive index | speed of sound [m/s]
[1] | 831.5 | – | 1391
[2] | – | 1.45598 | –

CCc1ccccc1 [ethylbenzene]
Settings | mass density, [1] [kg/m3] | refractive index, [2] | speed of sound, [1] [m/s]
283.15 K | 875.7 | 1.50129 | 1382
298.15 K | 862.5 | 1.49304 | 1319

CC1CCCCC1 [methylcyclohexane]
Settings | mass density, [1] [kg/m3] | refractive index, [2] | speed of sound, [1] [m/s]
283.15 K | 777.9 | 1.42833 | 1281
298.15 K | 765.1 | 1.42062 | 1215

CC1CCCCC1 [methylcyclohexane] + CCc1ccccc1
Settings | mass density, [4] [kg/m3] | refractive index, [3] | speed of sound, [4] [m/s]
283.15 K, x1 = 0.0494 | 870.3 | 1.49728 | 1376
283.15 K, x1 = 0.0975 | 865.2 | 1.49353 | 1369
283.15 K, x1 = 0.1983 | 854.6 | 1.4855 | 1356
283.15 K, x1 = 0.2981 | 844.4 | 1.47786 | 1345
283.15 K, x1 = 0.4008 | 834.1 | 1.47018 | 1333
283.15 K, x1 = 0.5005 | 824.2 | 1.46281 | 1323
283.15 K, x1 = 0.6001 | 814.6 | 1.45566 | 1313
283.15 K, x1 = 0.7006 | 805.2 | 1.44856 | 1304
283.15 K, x1 = 0.7952 | 796.4 | 1.44194 | 1297
283.15 K, x1 = 0.8949 | 787.3 | 1.43542 | 1289
283.15 K, x1 = 0.9495 | 782.4 | 1.43163 | 1285
283.15 K, x1 = 1 | 777.9 | 1.42833 | 1281
298.15 K, x1 = 0.0494 | 857.2 | 1.48923 | 1312
298.15 K, x1 = 0.0975 | 852.1 | 1.48542 | 1305
298.15 K, x1 = 0.1983 | 841.5 | 1.47754 | 1292
298.15 K, x1 = 0.2981 | 831.2 | 1.46988 | 1280
298.15 K, x1 = 0.4008 | 820.9 | 1.46219 | 1268
298.15 K, x1 = 0.5005 | 811 | 1.45484 | 1258
298.15 K, x1 = 0.6001 | 801.4 | 1.44771 | 1247
298.15 K, x1 = 0.7006 | 791.9 | 1.44068 | 1236
298.15 K, x1 = 0.7952 | 783.1 | 1.43414 | 1230
298.15 K, x1 = 0.8949 | 774.2 | 1.42751 | 1222
298.15 K, x1 = 0.9495 | 769.3 | 1.4239 | 1218
298.15 K, x1 = 1 | 765.1 | 1.42062 | 1215
